Assay results: the supplement of paper PMC10307832

Tests used:
Test in all cases: relative viability (nuclei count vs DMSO), 5 days (fraction); higher = more cells survive
[1] = compound: CN1CCN(CC1)C2=CC(=C(C=C2)NC3=NC(=C(S3)C(=O)C4=C(C=CC=C4Cl)Cl)N)OC [XMD14-99] + Nc1nc2[nH]cc(CCc3ccc(C(=O)N[C@@H](CCC(=O)O)C(=O)O)cc3)c2c(=O)[nH]1 [Pemetrexed] (partner 0.2 µM)
Summary of the method: (§1)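 Relative viability equals treated-well nuclei counts divided by vehicle-well nuclei counts. Counts came from 4× images of lung cancer cell lines grown in 1536-well plates for 5 days after pin-tool dosing on the day after seeding. Dosing used one drug alone or a fixed anchor-drug dose plus five library-drug doses (not always all listed) in √10 steps, and values are medians of duplicate plates.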

[2] = compound: N[C@@H]1CCCN(c2c(/C=C3\SC(=O)NC3=O)cccc2-c2ccccc2)C1 [AZD1208] + COc1cccc2cc(-c3nc([C@H]4CC[C@H](C(=O)O)CC4)n4ncnc(N)c34)[nH]c12 [OSI-027] (partner 0.5 µM)
Summary of the method: as §1

[3] = compound: N[C@@H]1CCCN(c2c(/C=C3\SC(=O)NC3=O)cccc2-c2ccccc2)C1 [AZD1208] + Nc1ncn([C@H]2C[C@H](O)[C@@H](CO)O2)c(=O)n1 [Decitabine] (partner 2 µM)
Summary of the method: as §1

[4] = compound: N[C@@H]1CCCN(c2c(/C=C3\SC(=O)NC3=O)cccc2-c2ccccc2)C1 [AZD1208] + O=C(c1cc(Cc2n[nH]c(=O)c3ccccc23)ccc1F)N1CCN(C(=O)C2CC2)CC1 [Olaparib] (partner 8 µM)
Summary of the method: as §1

Cell Line	relative viability ([1]; first compound 0.08 µM)	relative viability ([1]; first compound 0.8 µM)	relative viability ([1]; first compound 2.53 µM)	relative viability ([1]; first compound 8 µM)	relative viability ([2]; first compound 0.08 µM)	relative viability ([2]; first compound 0.253 µM)	relative viability ([2]; first compound 0.8 µM)	relative viability ([2]; first compound 2.53 µM)	relative viability ([2]; first compound 8 µM)	relative viability ([3]; first compound 0.08 µM)	relative viability ([3]; first compound 0.253 µM)	relative viability ([3]; first compound 0.8 µM)	relative viability ([3]; first compound 2.53 µM)	relative viability ([3]; first compound 8 µM)	relative viability ([4]; first compound 0.08 µM)	relative viability ([4]; first compound 0.253 µM)	relative viability ([4]; first compound 0.8 µM)	relative viability ([4]; first compound 2.53 µM)	relative viability ([4]; first compound 8 µM)
NCI-H358	0.16	0.142	0.178	0.146	0.649	0.738	0.626	0.695	0.472	0.206	0.188	0.185	0.207	0.197	0.636	0.515	0.501	0.544	0.525
NCI-H1944	0.595	0.605	0.602	0.481	0.407	0.341	0.305	0.282	0.249	0.42	0.437	0.467	0.355	0.372	0.387	0.411	0.361	0.373	0.344
NCI-H2342	0.785	0.748	0.815	0.762	0.575	0.664	0.488	0.627	0.574	0.772	0.736	0.595	0.674	0.581	0.49	0.383	0.372	0.456	0.376
EPLC-272H	0.406	0.335	0.324	0.291	0.255	0.289	0.276	0.247	0.281	0.412	0.342	0.392	0.364	0.368	0.647	0.773	0.906	0.687	0.656
NCI-H1915	0.472	0.475	0.431	0.426	0.571	0.524	0.569	0.428	0.451	0.249	0.263	0.235	0.271	0.231	0.251	0.236	0.261	0.218	0.238
NCI-H647	0.147	0.14	0.209	0.141	0.665	0.885	0.508	0.515	0.47	0.256	0.56	0.33	0.372	0.297	0.504	0.587	0.383	0.531	0.285
NCI-H441	0.257	0.289	0.235	0.254	0.518	0.535	0.396	0.493	0.352	0.205	0.298	0.291	0.224	0.264	0.578	0.529	0.545	0.502	0.366
NCI-H23	0.687	0.783	0.745	0.494	0.576	0.705	0.523	0.37	0.382	0.292	0.285	0.308	0.329	0.275	0.321	0.324	0.292	0.298	0.279
NCI-H522	0.867	1.04	1.14	1.08	0.771	0.575	0.618	0.691	0.701	0.678	0.634	0.73	0.643	0.636	0.527	0.504	0.633	0.703	0.568
NCI-H650	0.932	1.03	0.929	0.961	0.574	0.435	0.477	0.394	0.398	0.284	0.297	0.352	0.31	0.343	0.401	0.392	0.388	0.359	0.379
SK-MES-1	0.939	0.833	0.882	0.659	0.541	0.509	0.492	0.541	0.461	0.373	0.352	0.33	0.364	0.301	0.697	0.715	0.672	0.653	0.577
NCI-H2170	0.247	0.266	0.251	0.247	0.751	0.653	0.636	0.625	0.535	0.439	0.498	0.417	0.481	0.369	0.683	0.697	0.55	0.552	0.385
NCI-H2087	0.681	0.644	0.597	0.611	0.518	0.508	0.427	0.513	0.445	0.229	0.307	0.258	0.236	0.25	0.543	0.548	0.513	0.515	0.435
NCI-H838	0.253	0.226	0.255	0.198	0.378	0.453	0.38	0.326	0.301	0.458	0.491	0.465	0.493	0.406	0.789	0.796	0.72	0.759	0.753
NCI-H460	0.067	0.066	0.07	0.0715	0.59	0.853	0.633	0.647	0.477	0.458	0.604	0.465	0.495	0.516	0.474	0.43	0.407	0.431	0.443
LOU-NH91	0.351	0.379	0.319	0.415	0.737	0.577	0.631	0.694	0.619	0.766	0.798	0.793	0.798	0.798	0.905	0.943	0.876	0.907	0.883
NCI-H322M	0.654	0.57	0.606	0.535	0.569	0.514	0.459	0.508	0.462	0.669	0.659		0.669	0.713	0.762	0.799		0.726	0.834
